Earlier results, collected in patent US20180203025A1, “HDL THERAPY MARKERS” (Cerenis Therapeutics Holding SA, priority 2014, published 2018).
Where two headings read alike, the source gives them in different places.

Legend:
[1] = associated to statin; cited from earlier work
[2] = compared to atorvastatin; cited from earlier work
[3] = added to 80 mg atorvastatin, cited from earlier work
[4] = ACS patients, cited from earlier work

COc1cc(F)c(C(C)C)cc1-c1ccc(C(F)(F)F)cc1CN1C(=O)O[C@H](c2cc(C(F)(F)F)cc(C(F)(F)F)c2)[C@@H]1C [anacetrapib]
further decrease of LDL-cholesterol [1]: about 40% | HDL-cholesterol increase [2]: about 140% | LDL-cholesterol lowering [2]: 40%

CCOC(=O)N1c2ccc(C(F)(F)F)cc2[C@@H](N(Cc2cc(C(F)(F)F)cc(C(F)(F)F)c2)C(=O)OC)C[C@H]1CC [torcetrapib]
further decrease of LDL-cholesterol [1]: about 40% | HDL-cholesterol increase ([3]; compared to Atorvastatin alone): 80% | LDL-cholesterol decrease ([3]; compared to Atorvastatin alone): 25% | mortality and morbidity ([3]; 15 067 patients): increase of the mortality and morbidity

CCC(CC)CC1(C(=O)Nc2ccccc2SC(=O)C(C)C)CCCCC1 [dalcetrapib]
LDL-cholesterol [1]: remains unchanged | ApoA-I increase [4]: 18% | HDL-cholesterol increase [4]: about 30% | LDL-cholesterol [4]: no changes in LDL-cholesterol | clinical benefit compared to placebo ([4]; interim analysis): no benefit

Cc1cc(C)c2c(c1)[C@@H](N(Cc1cc(C(F)(F)F)cc(C(F)(F)F)c1)c1nnn(C)n1)CCCN2C[C@H]1CC[C@H](C(=O)O)CC1 [evacetrapib]
further decrease of LDL-cholesterol [1]: about 40%
